In PubChem BioAssay AID1963976 (Molecular Pharmacology Branch, DTP, NCI, 2024):
“And” between values parts separate entries of the source, which are not always exact repeats. Equal values may be shown once.

Test system: 435261-313-R-J1-PDC tumor spheroid viability
Assay: Anticancer human tumor 435261-313-R-J1-PDC patient-derived colon adenocarcinoma cell line growth inhibition [PI3K]
Conditions: spheroids with HUVEC and MSC; for viability, T/C: stronger effect = lower value; active means viability on the fitted dose curve at most 10% of control; inactive means the rest
Method in brief: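 Tumor cells were combined with HUVEC and MSCs into spheroids, then dosed with PI3K-inhibitor combinations over half-log ranges capped near clinical Cmax or 10 microM.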

[1] = curve of first compound, second compound 0.0316 µM
[2] = curve of first compound, second compound 0.1 µM
[3] = curve of first compound, second compound 0.316 µM
[4] = curve of first compound, second compound 1 µM
[5] = curve of first compound, second compound 3.16 µM
[6] = curve of first compound, second compound 10 µM
[7] = second compound 0.0316 µM, first compound 0.0316 µM
[8] = second compound 0.0316 µM, first compound 0.1 µM
[9] = second compound 0.0316 µM, first compound 0.316 µM
[10] = second compound 0.0316 µM, first compound 1 µM
[11] = second compound 0.1 µM, first compound 0.0316 µM
[12] = second compound 0.1 µM, first compound 0.1 µM
[13] = second compound 0.1 µM, first compound 0.316 µM
[14] = second compound 0.1 µM, first compound 1 µM
[15] = second compound 0.316 µM, first compound 0.0316 µM
[16] = second compound 0.316 µM, first compound 0.1 µM
[17] = second compound 0.316 µM, first compound 0.316 µM
[18] = second compound 0.316 µM, first compound 1 µM
[19] = second compound 1 µM, first compound 0.0316 µM
[20] = second compound 1 µM, first compound 0.1 µM
[21] = second compound 1 µM, first compound 0.316 µM
[22] = second compound 1 µM, first compound 1 µM
[23] = second compound 3.16 µM, first compound 0.0316 µM
[24] = second compound 3.16 µM, first compound 0.1 µM
[25] = second compound 3.16 µM, first compound 0.316 µM
[26] = second compound 3.16 µM, first compound 1 µM
[27] = second compound 10 µM, first compound 0.0316 µM
[28] = second compound 10 µM, first compound 0.1 µM
[29] = second compound 10 µM, first compound 0.316 µM
[30] = second compound 10 µM, first compound 1 µM
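Further: spheroids exposed to compounds for 7 days.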

CC(C)n1nc(-c2ccc3oc(N)nc3c2)c2c(N)ncnc21
inactive: viability, T/C (compound 0.000316 µM) 75.7% and 66.3% | viability, T/C (compound 0.001 µM) 119% and 65.3% | viability, T/C (compound 0.00316 µM) 86.6% and 58.6% | viability, T/C (compound 0.01 µM) 67.3% and 48.3% | viability, T/C (compound 0.0316 µM) 60.8% and 46.7% | viability, T/C (compound 0.1 µM) 18.7% and 12.7%
38 nM and 14.4 nM: IC50 (curve of compound)

CNC(=O)c1ccc(N2C(=S)N(c3ccc(C#N)c(C(F)(F)F)c3)C(=O)C2(C)C)cc1F + Cc1nc(NC(=O)N2CCCC2C(N)=O)sc1-c1ccnc(C(C)(C)C(F)(F)F)c1
> 10000 nM: IC50 [1] | IC50 [2]
< 31.6 nM: IC50 [3] | IC50 [4] | IC50 [5] | IC50 [6]
inactive: viability, T/C [7] 81.8% | viability, T/C [8] 78.2% | viability, T/C [9] 103% | viability, T/C [10] 75% | viability, T/C (second compound 0.0316 µM, first compound 3.16 µM) 93.5% | viability, T/C (second compound 0.0316 µM, first compound 10 µM) 84.2% | viability, T/C [11] 70.8% | viability, T/C [12] 52.1% | viability, T/C [13] 71.5% | viability, T/C [14] 61.4% | viability, T/C (second compound 0.1 µM, first compound 3.16 µM) 83.7% | viability, T/C (second compound 0.1 µM, first compound 10 µM) 77.1% | viability, T/C [15] 27.3% | viability, T/C [16] 59.3% | viability, T/C [17] 46.2% | viability, T/C [18] 61.7% | viability, T/C (second compound 0.316 µM, first compound 3.16 µM) 75.8% | viability, T/C (second compound 0.316 µM, first compound 10 µM) 45.7% | viability, T/C [19] 26.3% | viability, T/C [20] 30.4% | viability, T/C [21] 24.8% | viability, T/C [22] 37.4% | viability, T/C (second compound 1 µM, first compound 3.16 µM) 23.9% | viability, T/C (second compound 1 µM, first compound 10 µM) 25.1% | viability, T/C [23] 18.9% | viability, T/C [24] 17.4% | viability, T/C [25] 12.7% | viability, T/C [26] 17.8% | viability, T/C (second compound 3.16 µM, first compound 3.16 µM) 14% | viability, T/C (second compound 3.16 µM, first compound 10 µM) 9.85%
active: viability, T/C [27] 9.39% | viability, T/C [28] 8.74% | viability, T/C [29] 8.22% | viability, T/C [30] 8.91% | viability, T/C (second compound 10 µM, first compound 3.16 µM) 8.18% | viability, T/C (second compound 10 µM, first compound 10 µM) 5.56%

CCN1CCN(Cc2ccc(Nc3ncc(F)c(-c4cc(F)c5nc(C)n(C(C)C)c5c4)n3)nc2)CC1 + CC(Nc1ncnc2nc[nH]c12)c1cc2cccc(Cl)c2c(=O)n1-c1ccccc1
< 3.16 nM: IC50 [6]
inactive: viability, T/C (second compound 0.0316 µM, first compound 0.00316 µM) 97.8% | viability, T/C (second compound 0.0316 µM, first compound 0.01 µM) 81.8% | viability, T/C [7] 63.5% | viability, T/C [8] 60.1% | viability, T/C [9] 54.7% | viability, T/C [10] 51.6% | viability, T/C (second compound 0.1 µM, first compound 0.00316 µM) 73.2% | viability, T/C (second compound 0.1 µM, first compound 0.01 µM) 82.4% | viability, T/C [11] 99.5% | viability, T/C [12] 54.3% | viability, T/C [13] 48.6% | viability, T/C [14] 60.4% | viability, T/C (second compound 0.316 µM, first compound 0.00316 µM) 99.1% | viability, T/C (second compound 0.316 µM, first compound 0.01 µM) 110% | viability, T/C [15] 74.2% | viability, T/C [16] 61.9% | viability, T/C [17] 46.6% | viability, T/C [18] 54.5% | viability, T/C (second compound 1 µM, first compound 0.00316 µM) 96% | viability, T/C (second compound 1 µM, first compound 0.01 µM) 85.3% | viability, T/C [19] 59.7% | viability, T/C [20] 50.3% | viability, T/C [21] 44.9% | viability, T/C [22] 54.6% | viability, T/C (second compound 3.16 µM, first compound 0.00316 µM) 92.2% | viability, T/C (second compound 3.16 µM, first compound 0.01 µM) 62% | viability, T/C [23] 43.9% | viability, T/C [24] 36.1% | viability, T/C [25] 42.1% | viability, T/C [26] 37.7% | viability, T/C (second compound 10 µM, first compound 0.00316 µM) 43.8% | viability, T/C (second compound 10 µM, first compound 0.01 µM) 42.4% | viability, T/C [27] 32.5% | viability, T/C [28] 30.7% | viability, T/C [29] 30.4% | viability, T/C [30] 34.6%
> 1000 nM: IC50 [1] | IC50 [2] | IC50 [3]
222 nM: IC50 [4]
20.8 nM: IC50 [5]
